The results in this text go back to patent US11964953B2, “Substituted aminothiazoles as DGKzeta inhibitors for immune activation” (Bayer Aktiengesellschaft, priority 2020, dated 2024).

In the assay the target is human DGKζ (Homo sapiens (Human), UniProt Q13574). The experiment in a line: Human DGKζ kinase activity inhibition assay (ADP-Glo). In kind it is biochemical. The conditions noted are these: in vitro human DGKζ kinase activity inhibition assay; read-out: IC50. The essentials:
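Enzyme was C-terminally FLAG-tagged full-length recombinant human DGKζ from baculovirus-infected insect cells. Substrate preparation used octyl-β-D-glucopyranoside in 50 mM MOPS pH 7.4 with sonication; ADP generated was quantified by ADP-Glo luminescence as activity measure.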
(In general: In ADP-Glo the light output rises with the ADP produced.)

Chain of human DGKζ (Q13574 other isoform, or with tags, fused parts or gaps): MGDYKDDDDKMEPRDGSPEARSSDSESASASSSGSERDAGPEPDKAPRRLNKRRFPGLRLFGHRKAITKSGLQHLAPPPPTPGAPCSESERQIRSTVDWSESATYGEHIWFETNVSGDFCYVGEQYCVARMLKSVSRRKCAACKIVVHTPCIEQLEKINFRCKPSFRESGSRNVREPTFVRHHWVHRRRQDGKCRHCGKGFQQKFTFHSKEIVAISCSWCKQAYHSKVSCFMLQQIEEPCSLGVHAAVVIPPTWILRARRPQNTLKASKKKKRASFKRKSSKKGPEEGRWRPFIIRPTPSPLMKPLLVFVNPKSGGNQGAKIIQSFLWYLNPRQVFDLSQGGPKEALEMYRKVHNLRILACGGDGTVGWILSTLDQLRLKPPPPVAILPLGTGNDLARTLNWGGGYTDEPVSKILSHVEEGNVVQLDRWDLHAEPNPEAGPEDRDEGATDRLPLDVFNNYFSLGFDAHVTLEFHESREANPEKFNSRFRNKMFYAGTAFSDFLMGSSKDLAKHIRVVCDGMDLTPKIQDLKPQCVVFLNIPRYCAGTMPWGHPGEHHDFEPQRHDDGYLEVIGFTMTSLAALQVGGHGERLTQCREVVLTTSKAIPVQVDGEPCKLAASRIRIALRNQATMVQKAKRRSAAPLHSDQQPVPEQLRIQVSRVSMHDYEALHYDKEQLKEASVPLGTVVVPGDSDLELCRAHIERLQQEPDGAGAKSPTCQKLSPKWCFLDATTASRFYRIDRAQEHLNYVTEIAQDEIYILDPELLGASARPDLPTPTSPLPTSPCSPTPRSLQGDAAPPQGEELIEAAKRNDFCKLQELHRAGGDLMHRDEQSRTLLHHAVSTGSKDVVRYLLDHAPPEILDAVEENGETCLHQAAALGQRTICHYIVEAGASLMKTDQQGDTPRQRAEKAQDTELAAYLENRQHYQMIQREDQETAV

A word on the IC50: it is the concentration needed to halve the response being measured. On to `CC(=O)Nc1ccc(C(=O)c2sc(N(c3ccc(F)cc3)C(C)C(N)=O)nc2N)cc1` (racemic) [Example 185, rac-2-(N-[5-(4-acetamidobenzoyl)-4-amino-thiazol-2-yl]-4-fluoro-anilino)propanamide], for which the 50% inhibitory concentration (IC50) was 0.301 µM.

Regarding `CC(C(N)=O)N(c1ccc(F)cc1)c1nc(N)c(C(=O)c2ccnc(Cl)c2)s1` (racemic) [Example 186, rac-2-(N-[4-amino-5-(2-chloropyridine-4-carbonyl)thiazol-2-yl]-4-fluoro-anilino)propanamide], the half-inhibitory concentration (IC50) is 0.392 µM.

For `Cc1cc(C(=O)c2sc(N(c3ccc(F)cc3)C(C)C(N)=O)nc2N)ccn1` (racemic) [Example 187, rac-2-(N-[4-amino-5-(2-methylpyridine-4-carbonyl)thiazol-2-yl]-4-fluoro-anilino)propanamide], the IC50 worked out at 1.4 µM.

For the compound `CC(C(N)=O)N(c1ccc(F)cc1)c1nc(N)c(C(=O)c2ccnc(C(F)F)c2)s1` (racemic) [Example 188, rac-2-(N-[4-amino-5-[2-(difluoromethyl)pyridine-4-carbonyl]thiazol-2-yl]-4-fluoro-anilino)propanamide], the IC50 was 1.24 µM. As to `CC(C(N)=O)N(c1ccncc1)c1nc(N)c(C(=O)c2ccccc2)s1` (racemic) [Example 189, rac-2-[(4-amino-5-benzoyl-thiazol-2-yl)-(4-pyridyl)amino]propanamide], the IC50 came to 6.35 µM. The same measure for `COc1cc(C(=O)c2sc(N(c3ccc(F)cc3)C(C)C(N)=O)nc2N)ccn1` (racemic) [Example 190, rac-2-(N-[4-amino-5-(2-methoxypyridine-4-carbonyl)thiazol-2-yl]-4-fluoro-anilino)propanamide]: 0.553 µM; for `COc1ccc(N(c2nc(N)c(C(=O)c3ccccc3)s2)C(C)C(N)=O)cc1F` (racemic) [Example 191, rac-2-(N-(4-amino-5-benzoyl-thiazol-2-yl)-3-fluoro-4-methoxy-anilino)propanamide]: 0.356 µM; for `CC(C(N)=O)N(c1ccc(C#N)c(F)c1)c1nc(N)c(C(=O)c2ccccc2)s1` (racemic) [Example 192, rac-2-(N-(4-amino-5-benzoyl-thiazol-2-yl)-4-cyano-3-fluoro-anilino)propanamide]: 0.224 µM. For `CC(C(N)=O)N(c1ccc(Br)cc1)c1nc(N)c(C(=O)c2ccccc2)s1` (racemic) [Example 193, rac-2-(N-(4-amino-5-benzoyl-thiazol-2-yl)-4-bromo-anilino)propanamide], the IC50 is 0.035 µM. The same measure for `CC(C(N)=O)N(c1ccc(OC(F)F)c(Cl)c1)c1nc(N)c(C(=O)c2ccccc2)s1` (racemic) [Example 194, rac-2-[N-(4-amino-5-benzoyl-thiazol-2-yl)-3-chloro-4-(difluoromethoxy)anilino]propanamide]: 0.066 µM; for `CCOc1ccc(N(c2nc(N)c(C(=O)c3ccccc3)s2)C(C)C(N)=O)cc1` (racemic) [Example 195, rac-2-(N-(4-amino-5-benzoyl-thiazol-2-yl)-4-ethoxy-anilino)propanamide]: 1 µM. The same measure for `CC(C(N)=O)N(c1ccc2c(c1)OCO2)c1nc(N)c(C(=O)c2ccccc2)s1` (racemic) [Example 196, rac-2-[(4-amino-5-benzoyl-thiazol-2-yl)-(1,3-benzodioxol-5-yl)amino]propanamide]: 0.128 µM. The same measure for `CC(C(N)=O)N(c1ccc2c(c1)OC(F)(F)O2)c1nc(N)c(C(=O)c2ccccc2)s1` (racemic) [Example 197, rac-2-[(4-amino-5-benzoyl-thiazol-2-yl)-(2,2-difluoro-1,3-benzodioxol-5-yl)amino]propanamide]: 0.09 µM; for `CC(C(N)=O)N(c1ccc(OC(F)F)c(F)c1)c1nc(N)c(C(=O)c2ccccc2)s1` (racemic) [Example 198, rac-2-[N-(4-amino-5-benzoyl-thiazol-2-yl)-4-(difluoromethoxy)-3-fluoro-anilinojpropanamide]: 0.088 µM; for `CC(C(N)=O)N(c1ccc(OCc2ccccc2)cc1)c1nc(N)c(C(=O)c2ccccc2)s1` (racemic) [Example 199, rac-2-(N-(4-amino-5-benzoyl-thiazol-2-yl)-4-benzyloxy-anilino)propanamide]: 0.396 µM. As for `COc1ccc(C(=O)c2sc(N(c3ccc(OC(F)F)c(Cl)c3)C(C)C(N)=O)nc2N)cc1` (racemic) [Example 200, rac-2-[N-[4-amino-5-(4-methoxybenzoyl)thiazol-2-yl]-3-chloro-4-(difluoromethoxy)anilino]propanamide], the concentration for half-maximal inhibition (IC50) was determined as 0.07 µM. The same measure for `CC(C(N)=O)N(c1ccc(OC(F)F)c(Cl)c1)c1nc(N)c(C(=O)c2ccc(OC(F)F)cc2)s1` (racemic) [Example 201, rac-2-[N-[4-amino-5-[4-(difluoromethoxy)benzoyl]thiazol-2-yl]-3-chloro-4-(difluoromethoxy)anilino]propanamide]: 0.025 µM; for `CC(C(N)=O)N(c1ccc(OC(F)F)c(Cl)c1)c1nc(N)c(C(=O)c2ccc(Cl)cc2)s1` (racemic) [Example 202, rac-2-[N-[4-amino-5-(4-chlorobenzoyl)thiazol-2-yl]-3-chloro-4-(difluoromethoxy)anilino]propanamide]: 0.069 µM; for `CC(C(N)=O)N(c1ccc(OC(F)F)c(Cl)c1)c1nc(N)c(C(=O)c2ccncc2)s1` (racemic) [Example 203, rac-2-[N-[4-amino-5-(pyridine-4-carbonyl)thiazol-2-yl]-3-chloro-4-(difluoromethoxy)anilino]propanamide]: 0.381 µM. The same measure for `CC(C(N)=O)N(c1ccc(OC(F)F)c(Cl)c1)c1nc(N)c(C(=O)c2ccc(OC(F)F)nc2)s1` (racemic) [Example 204, rac-2-[N-[4-amino-5-[6-(difluoromethoxy)pyridine-3-carbonyl]thiazol-2-yl]-3-chloro-4-(difluoromethoxy)anilino]propanamide]: 0.073 µM. With `COc1ccc(C(=O)c2sc(N(c3ccc(OC(F)F)c(F)c3)C(C)C(N)=O)nc2N)cc1` (racemic) [Example 205, rac-2-[N-[4-amino-5-(4-methoxybenzoyl)thiazol-2-yl]-4-(difluoromethoxy)-3-fluoro-anilino]propanamide], the IC50 turned out to be 0.054 µM. As for `CC(C(N)=O)N(c1ccc(OC(F)F)c(F)c1)c1nc(N)c(C(=O)c2ccc(Cl)cc2)s1` (racemic) [Example 206, rac-2-[N-[4-amino-5-(4-chlorobenzoyl)thiazol-2-yl]-4-(difluoromethoxy)-3-fluoro-anilino]propanamide], the figure is 0.048 µM; as for `CC(C(N)=O)N(c1ccc(OC(F)F)c(F)c1)c1nc(N)c(C(=O)c2ccc(OC(F)F)cc2)s1` (racemic) [Example 207, rac-2-[N-[4-amino-5-[4-(difluoromethoxy)benzoyl]thiazol-2-yl]-4-(difluoromethoxy)-3-fluoro-anilino]propanamide], 0.022 µM; as for `CC(C(N)=O)N(c1ccc(OC(F)F)c(F)c1)c1nc(N)c(C(=O)c2ccncc2)s1` (racemic) [Example 208, rac-2-[N-[4-amino-5-(pyridine-4-carbonyl)thiazol-2-yl]-4-(difluoromethoxy)-3-fluoro-anilino]propanamide], 0.672 µM.
